Molecules are shown by their SMILES. Where “and” joins values, the source holds several entries; their conditions need not be identical. Equal values may be shown once. Square brackets hold non-standard residues; d marks the D form. Peptide text beside a SMILES is read from it. dHica = CC(C)C[C@@H](O)C(=O)O; NMeV = CN[C@H](C(=O)O)C(C)C; NMeA = CN[C@@H](C)C(=O)O; βAla = NCCC(=O)O

The target of the assay is IN-GCN2 interaction (6xHis-IN / GST-GCN2) (UniProt P04585+Q9P2K8). The experiment in a line: biochemical. In kind it is binding, HIV-1 IN; human GCN2. The note with it: screen, single dose 100 µM, single replicate; residual AlphaLISA signal normalized to DMSO control. Background: Bead proximity is the source of the signal in Alpha formats.
Sequence of IN-GCN2 interaction (6xHis-IN / GST-GCN2) (Q9P2K8 192-1024, other chains not shown): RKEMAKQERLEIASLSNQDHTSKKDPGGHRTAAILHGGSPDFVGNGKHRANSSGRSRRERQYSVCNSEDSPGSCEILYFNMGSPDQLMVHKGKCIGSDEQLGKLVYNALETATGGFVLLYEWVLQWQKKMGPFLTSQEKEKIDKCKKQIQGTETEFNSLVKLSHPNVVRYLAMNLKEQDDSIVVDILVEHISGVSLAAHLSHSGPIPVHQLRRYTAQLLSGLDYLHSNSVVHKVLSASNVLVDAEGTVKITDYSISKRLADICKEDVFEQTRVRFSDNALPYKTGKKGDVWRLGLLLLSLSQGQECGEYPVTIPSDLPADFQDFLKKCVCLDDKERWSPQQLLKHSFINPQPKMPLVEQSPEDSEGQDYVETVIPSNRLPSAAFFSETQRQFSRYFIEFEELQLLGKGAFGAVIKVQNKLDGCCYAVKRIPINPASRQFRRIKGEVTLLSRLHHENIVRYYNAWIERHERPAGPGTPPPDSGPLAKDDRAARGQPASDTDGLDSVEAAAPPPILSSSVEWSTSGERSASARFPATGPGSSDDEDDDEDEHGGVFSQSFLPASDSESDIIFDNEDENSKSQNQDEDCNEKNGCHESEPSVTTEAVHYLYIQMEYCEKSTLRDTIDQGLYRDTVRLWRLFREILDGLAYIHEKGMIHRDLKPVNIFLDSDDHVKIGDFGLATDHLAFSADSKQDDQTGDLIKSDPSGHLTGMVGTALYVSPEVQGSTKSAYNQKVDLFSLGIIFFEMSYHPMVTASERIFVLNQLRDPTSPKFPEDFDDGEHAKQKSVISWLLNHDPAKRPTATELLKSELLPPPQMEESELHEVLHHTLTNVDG
On to `COc1cc([C@@H]2c3cc4c(cc3[C@@H](O[C@@H]3O[C@@H]5CO[C@@H](c6cccs6)O[C@H]5[C@H](O)[C@H]3O)[C@H]3COC(=O)[C@H]23)OCO4)cc(OC)c1O` [NSC122819], for which the “IN-GCN2 interaction (%)” value is 96.83%.
The result for `COc1ccc(-c2cc(=O)c3ccc(O)cc3o2)cc1OC` [NSC123383] reads 118.02%; that for `COc1c(O)ccc2c1CN1CCc3cc4c(cc3C1C2)OCO4` (stereo not shown) [NSC123389], 87.65%.
With `CO[C@H]1[C@@H](O)[C@@H](C)O[C@@H](OC2CCC3(C)C(CCC4C3C(O)CC3(C)C(C5=CC(=O)OC5)CCC43O)C2)[C@@H]1O` (stereo partly shown) [NSC123977], the “IN-GCN2 interaction (%)” value turned out to be 127.41%.
In the case of `CCC(C)(O)c1cnc(CC(C)C)c(=O)n1O` (stereo not shown) [NSC127445], the “IN-GCN2 interaction (%)” value amounted to 137.47%.
Consider `O=C(O)/C=C/CC[C@@H]1SC[C@@H]2NC(=O)N[C@@H]21` [NSC127473], for which the “IN-GCN2 interaction (%)” value amounted to 109.13%.
Next, `COC1=CC23CCCN2CCc2cc4c(cc2C3C1O)OCO4` (stereo not shown) [NSC128487]: 118.57%; `C=C1C(=O)OC2CCN3CC=C(COC(=O)C(C)(O)C4(CO4)C1C)C23` (stereo not shown) [NSC129230]: 110.22%; `CC(C)(O)[C@@H]1[C@H]2OC(=O)[C@@H]1[C@]1(O)C[C@H]3O[C@]34C(=O)O[C@H]2[C@]14C` [NSC129536]: 112.62%.
The result for `CC[C@](C)(O)C(=O)O[C@H]1C(=O)O[C@@H]2C[C@H]3C(C)=CC(=O)[C@@H](O)[C@]3(C)[C@H]3[C@@]4(O)OC[C@]32[C@@H]1[C@@H](C)[C@H]4O` [NSC132791] reads 89.72%.
The result for `CO[C@H]1/C=C/O[C@@]2(C)Oc3c(C)c(O)c4c(O)c(cc(O)c4c3C2=O)NC(=O)/C(C)=C\C=C\[C@H](C)[C@H](O)[C@@H](C)[C@@H](O)[C@@H](C)[C@H](OC(C)=O)[C@@H]1C` [NSC133100] reads 111.79%.
Regarding `CCCCCCCCCCCCCCCC(=O)OC[C@H]1O[C@@H](n2ccc(N)nc2=O)[C@@H](O)[C@@H]1O` [NSC135962], the “IN-GCN2 interaction (%)” value turned out to be 92.71%.
Regarding `NCCOC[C@H](N)C(=O)O` [NSC136035], the “IN-GCN2 interaction (%)” value was determined as 90.45%.
The result for `COC1CCC(OC2CC(C3(C)CCC4(CC(O)C(C)C(C(C)/C=C(\C)C(=O)C(C)CC(C)C(=O)O)O4)O3)OC3(OC(C4OC(O)(CO)C(C)CC4C)CC3C)C2C)OC1C` (stereo not shown) [NSC138320] reads 102.91% and 57.85%.
In the case of `COC1C(=O)CCC2(CO2)C1(O)C1(C)OC1CC=C(C)C` (stereo not shown) [NSC141538], the “IN-GCN2 interaction (%)” value is listed as 103.23%.
The result for `C/C(=C\COc1ccc2ccc(=O)oc2c1)C1=CC(=O)C(C)(C)O1` [NSC142227] reads 94.46%; that for `Cl.NC(=O)c1cn(C2OC(CO)C(O)C2O)c2ncnc(N)c12` (stereo not shown) [NSC143648], 113.09%.
The result for `CC(=O)C(=O)N[C@@H]1/C=C(C)/C=C/[C@@H](O)C/C=C(C)/C=C/[C@@H](O)C[C@H]2OC(=O)[C@]1(C)C(=O)[C@@H]2C` [NSC145118] reads 98.66%; that for `C=C1C(=O)OCC2C(C(=O)O)=CC3C(C)C(C)=CC123` (stereo not shown) [NSC145150], 111.51%.
The result for `CO[C@@H]1/C=C\O[C@]2(C)Oc3c(C)c(O)c4c(O)c(c(CN(C)C)c(O)c4c3C2=O)NC(=O)/C(C)=C\C=C[C@@H](C)[C@@H](O)[C@H](C)[C@@H](O)[C@H](C)[C@H](OC(C)=O)[C@@H]1C` [NSC145612] reads 71.81%; that for `COc1cc2c(cc1OC)C(OC)N(C)c1c-2ccc2cc3c(cc12)OCO3` (stereo not shown) [NSC146396], 90.77%; that for `COc1ccc(C[C@@H]2NC[C@@H](O)[C@@H]2OC(C)=O)cc1.Cl` [NSC147340], 88.95%.
Turning to `CC(=O)O[C@H]1C[C@]2(O)[C@@H]3CC[C@@H]4C[C@@H](O)CC[C@]4(C)[C@H]3CC[C@]2(C)[C@H]1C1=CC(=O)OC1` [NSC148790], the “IN-GCN2 interaction (%)” value is recorded as 114.66%.
Take `C[C@@H]1[C@H](O)[C@@H](C)/C=C/C=C/CC/C=C/C=C/C=C/C=C/C(O[C@H]2O[C@H](C)[C@@H](O)[C@H](N)[C@@H]2O)CC2O[C@](O)(CC(O)C(O)CCC(O)CC(O)CC(O)CC(=O)O[C@H]1C)CC(O)C2C(=O)O` (stereo partly shown) [NSC150817]: the “IN-GCN2 interaction (%)” value worked out at 68.70%.
Next, `COc1cc2cc(c1Cl)N(C)C(=O)C[C@H](OC(=O)[C@H](C)N(C)C(C)=O)[C@]1(C)O[C@H]1[C@H](C)[C@@H]1C[C@@](O)(NC(=O)O1)[C@H](OC)/C=C/C=C(\C)C2` [NSC153858]: 76.02%; `COC(=O)[C@H]1[C@H](O)[C@H](C)[C@@H](O)[C@](C)(O)/C=C(\C)C2=C3C(=C(C)C(=O)c4c(O)c(c(C)c(OC(C)=O)c43)NC(=O)/C(C)=C/C=C\[C@](C)(O)[C@@H](O)[C@@H](C)[C@H]1O)OCO2` [NSC156219]: 73.43%; `CC1=CC(=O)C2=C(C)CCC3C(C)C(=O)OC3C12` (stereo not shown) [NSC156236]: 75.72%.
The result for `C=C1C(=O)O[C@H]2[C@H]1CC/C(C)=C/CC[C@@]1(C)O[C@@H]21` [NSC157035] reads 97.44%; that for `CC1=CC2=C(C=O)C(=O)[C@](C)(O)[C@@H](O)C2=CO1` [NSC159632], 82.72%.
Regarding `COC(=O)[C@@]12OC[C@]34[C@H]([C@@H](O)[C@@H]1O)[C@@]1(C)CC(=O)C(O)=C(C)[C@@H]1C[C@H]3OC(=O)[C@H](OC(=O)/C=C(\C)C(C)C)[C@@H]24` [NSC165563], the “IN-GCN2 interaction (%)” value came out at 97.95%.
Next, `COC1=CC(=O)C(C2CC(=O)c3c(O)cc(O)cc3O2)=CC1=O` (stereo not shown) [NSC169517]: 98.58%.
Next, `COC(=O)C1C(O)C(C)C(O)OC1C(C)C(O)C(C)C=CC=C(C)C(=O)Nc1c(C)c(OC(C)=O)c2c(c1O)C(=O)C(C)=C1OCOC(C(C)=CC(C)=O)=C12` (stereo not shown) [NSC169627]: 26.60%; `C=C(NC(=O)C(=C)NC(=O)c1csc(C2=NC3c4csc(n4)C4NC(=O)c5csc(n5)C(C(C)(O)C(C)O)NC(=O)C5CSC(=N5)/C(=C\C)NC(=O)C(C(C)O)NC(=O)c5csc(n5)C3(CC2)NC(=O)C(C)NC(=O)C(=C)NC(=O)C(C)NC(=O)C(C(C)CC)NC2C=Cc3c(C(C)O)cc(nc3C2O)C(=O)OC4C)n1)C(N)=O` (stereo not shown) [NSC170365]: 53.53%.
On to `COC(=O)[C@@]12OC[C@]34[C@H]([C@@H](O)[C@@H]1O)[C@@]1(C)CC(=O)C(O)=C(C)[C@@H]1C[C@H]3OC(=O)[C@H](OC(=O)C=C(C)C)[C@@H]24` [NSC172924], for which the “IN-GCN2 interaction (%)” value is recorded as 122.74%.
Next, `CC(C)=CC(=O)O[C@H]1[C@H]2[C@H](OC(=O)[C@H]2C)[C@H](O)[C@@H](C)[C@@H]2C=CC(=O)[C@]21C` [NSC176503]: 99.27%; `CO[C@@H]1/C=C/O[C@@]2(C)Oc3c(C)c(O)c4c(c3C2=O)C(=N[C@@H]2CC[C@@H](O)O[C@H]2C)C=C(NC(=O)/C(C)=C\C(=O)[C@@H]2C[C@@H]2[C@H](O)[C@@H](C)[C@@H](O)[C@@H](C)[C@H](OC(C)=O)[C@@H]1C)C4=O` [NSC177383]: 103.89%; `CCC(C(=O)C(C)C(O)C(C)CCc1ccc(C)c(O)c1C(=O)O)C1OC(CC)(C2CCC(O)(CC)C(C)O2)CC1C` (stereo not shown) [NSC177406]: 94.24%.
Regarding `CC[C@H]1NC(=O)[C@@H](NC(=O)c2ncccc2O)[C@@H](C)OC(=O)[C@H](c2ccccc2)NC(=O)[C@@H]2CC(=O)CCN2C(=O)[C@H](Cc2ccccc2)N(C)C(=O)[C@@H]2CCCN2C1=O` [NSC177858], the “IN-GCN2 interaction (%)” value is recorded as 35.20%.
Take `COc1ccc(O)c2c(=O)c3c(OC)cc4c(c3oc12)[C@@H]1C=CO[C@@H]1O4` [NSC178249]: the “IN-GCN2 interaction (%)” value was determined as 73.18%.
In the case of `CC1=C(C)C(=O)O[C@@H]([C@](C)(O)[C@]2(O)CC[C@@]3(O)[C@@H]4C[C@H]5O[C@]56CC=CC(=O)[C@]6(C)[C@H]4CC[C@]23C)C1` [NSC179834], the “IN-GCN2 interaction (%)” value was 38.70%.
The result for `CC(=O)C1CCCC(=O)/C=C/C(=O)O1` (stereo not shown) [NSC180515] reads 108.07%; that for `C=C1CCO[C@]2([C@@H](O)[C@@](C)(O)CO)NC(=O)[C@@]1(O)NC2=O` [NSC180516], 114.16%; that for `C[C@H]1O[C@@H](c2ccc3c(c2O)C(=O)C2=C(C3=O)[C@@]3(O)C(=O)C[C@](C)(O)C[C@@]3(O)C=C2)C[C@@H](O)[C@@H]1O` [NSC184398], 10.15%.
Next, `CC[C@H]1OC(=O)[C@H](C)[C@@H](O[C@H]2C[C@@](C)(O)[C@@H](O)[C@H](C)O2)[C@H](C)[C@@H](O)[C@](C)(O)C[C@@H](C)C(=O)[C@H](C)[C@@H](O)[C@H]1C` [NSC209870]: 103.21%.
Next, `C=C1C(=O)OC2CC1C(O)C/C(C)=C/CC/C(C)=C/C(O)CC2C` (stereo not shown) [NSC210236]: 107.44%.
Take `C[C@@H]1C[C@H](C)C[C@H](C)[C@@H](O)CC(=O)O[C@H]([C@@H]2CCC[C@H]2C(=O)O)C/C=C/C=C(/C#N)[C@H](O)[C@@H](C)C1` [NSC216128]: the “IN-GCN2 interaction (%)” value amounted to 89.16%.
The result for `CO[C@H]1C[C@@H]2CC[C@@H](C)[C@@](O)(O2)C(=O)C(=O)N2CCCC[C@H]2C(=O)O[C@H]([C@H](C)C[C@@H]2CC[C@@H](O)[C@H](OC)C2)CC(=O)[C@H](C)/C=C(\C)[C@@H](O)[C@@H](OC)C(=O)[C@H](C)C[C@H](C)/C=C/C=C/C=C/1C` [NSC226080] reads 54.18%.
Next, `CO[C@@H]1[C@@H](OC(=O)c2ccc(C)[nH]2)[C@@H](O)[C@H](Oc2ccc3c(O)c(NC(=O)c4ccc(O)c(CC=C(C)C)c4)c(=O)oc3c2Cl)OC1(C)C` [NSC227186]: 36.34%; `CC[C@H](C)[C@@H]1NC(=O)[C@@H]2CCCN2C(=O)[C@@H](CC(C)C)OC(=O)CCNC(=O)[C@H](C)N(C)C(=O)[C@H](C(C)C)N(C)C1=O` [NSC236580] (cyclo([dHica]PI[NMeV][NMeA][βAla])): 98.06%.

Source of the values: publication PMC12390684 (Viruses, 2025).
